According to patent publication US10894792B2, “Pesticidally active heterocyclic derivatives with sulfur containing substituents” (SYNGENTA PARTICIPATIONS AG, priority 2017, dated 2021):

What was measured:
Spodoptera littoralis = assay: Activity against Spodoptera littoralis (Egyptian cotton leaf worm); format: in vivo; details: foliar, 72 h, application rate of 200 ppm, sprayed cotton leaf discs, L1 larvae, 3 days after infestation, read-out: control (mortality, anti-feeding effect, or growth inhibition)
Description: Cotton leaf discs were placed onto agar in 24-well microtiter plates and sprayed with aqueous test solutions prepared from 10′000 ppm DMSO stock solutions. After drying the leaf discs were infested with five L1 larvae. The samples were assessed for mortality, anti-feeding effect, and growth inhibition in comparison to untreated samples 3 days after infestation. Control of Spodoptera littoralis by a test sample is given when at least one of the categories mortality, anti-feedant effect, and growth inhibition is higher than the untreated sample.

Plutella xylostella = assay: Activity against Plutella xylostella (diamond back moth), artificial diet; format: in vivo; details: 120 h, application rate of 200 ppm, L2 larvae on artificial diet, 5 days after infestation, read-out: effect in at least one of the two categories (mortality or growth inhibition)
Description: (§1) 24-well microtiter plates with artificial diet were treated with aqueous test solutions prepared from 10′000 ppm DMSO stock solutions by pipetting. After drying, the plates were infested with L2 larvae (10 to 15 per well). The samples were assessed for mortality and growth inhibition in comparison to untreated samples 5 days after infestation.

Diabrotica Balteata = assay: Activity against Diabrotica balteata (corn root worm); format: in vivo; details: 96 h, application rate of 200 ppm, sprayed maize sprouts, L2 larvae, 4 days after infestation, read-out: effect in at least one of the two categories (mortality or growth inhibition)
Description: as §1, with “Maize sprouts placed onto an agar layer in 24-well” for “24-well”, “plates” for “plates with artificial diet”, “spraying.” for “pipetting.”, “(6” for “(10”, “10” for “15”, “4” for “5”

[1] = test system: Frankliniella occidentalis; assay: Activity against Frankliniella occidentalis (western flower thrips); format: in vivo; details: foliar, 168 h, application rate of 200 ppm, sprayed sunflower leaf discs, population of mixed ages, 7 days after infestation
Description: Sunflower leaf discs were placed on agar in 24-well microtiter plates and sprayed with aqueous test solutions prepared from […] stock solutions. After drying the leaf discs were infested with a Frankliniella population of mixed ages. The samples were assessed for mortality 7 days after infestation.

Euschistus heros = assay: Activity against Euschistus heros (neotropical brown stink bug); format: in vivo; details: 120 h, application rate of 200 ppm, sprayed soybean leaf, N-2 nymphs, 5 days after infestation, read-out: effect in at least one of the two categories (mortality or growth inhibition)
Description: Soybean leaf on agar in 24-well microtiter plates were sprayed with aqueous test solutions prepared from 10′000 ppm DMSO stock solutions. After drying the leaf were infested with N-2 nymphs. The samples were assessed for mortality and growth inhibition in comparison to untreated samples 5 days after infestation.

Bemisia tabaci = assay: Activity against Bemisia tabaci (cotton white fly); format: in vivo; details: foliar, 144 h, application rate of 200 ppm, sprayed cotton leaf discs, adult white flies, 6 days after incubation
Description: Cotton leaf discs were placed on agar in 24-well microtiter plates and sprayed with aqueous test solutions prepared from 10′000 ppm DMSO stock solutions. After drying the leaf discs were infested with adult white flies. The samples were checked for mortality 6 days after incubation.

Myzus persicae [2] = assay: Activity against Myzus persicae (green peach aphid), sprayed sunflower leaf discs; format: in vivo; details: foliar, 144 h, application rate of 200 ppm, aphid population of mixed ages, 6 days after infestation
Description: Sunflower leaf discs were placed on agar in a 24-well microtiter plate and sprayed with aqueous test solutions prepared from 10′000 ppm DMSO stock solutions. After drying, the leaf discs were infested with an aphid population of mixed ages. The samples were assessed for mortality 6 days after infestation.

Myzus persicae [3] = assay: Activity against Myzus persicae (green peach aphid), roots of pea seedlings in test solution; format: in vivo; details: 144 h, test rate of 24 ppm, roots of infested pea seedlings in test solution, 6 days
Description: Roots of pea seedlings infested with an aphid population of mixed ages were placed directly in the aqueous test solutions prepared from 10′000 DMSO stock solutions. The samples were assessed for mortality 6 days after placing seedlings in test solutions.

| melting point [°C] | Structure (SMILES) | percent control (mortality, anti-feedant effect or growth inhibition) at 200 ppm (Spodoptera littoralis) [%] | percent effect (mortality or growth inhibition) at 200 ppm (Plutella xylostella) [%] | percent effect (mortality or growth inhibition) at 200 ppm (Diabrotica Balteata) [%] | mortality at 200 ppm [1] [%] | percent effect (mortality or growth inhibition) at 200 ppm (Euschistus heros) [%] | mortality at 200 ppm (Bemisia tabaci) [%] | mortality at 200 ppm (Myzus persicae [2]) [%] | mortality at 24 ppm (Myzus persicae [3]) [%] |
| --- | --- | --- | --- | --- | --- | --- | --- | --- | --- |
|  | CCS(=O)(=O)c1cc(C(=O)N=S(C)(C)=O)cnc1-c1cn2cnc(C(F)(F)F)cc2n1 [Compound P4, N-[dimethyl(oxo)-λ^6-sulfanylidene]-5-ethylsulfonyl-6-[7-(trifluoromethyl)imidazo[1,2-c]pyrimidin-2-yl]pyridine-3-carboxamide] | ≥ 80 | ≥ 80 | ≥ 80 | ≥ 80 | ≥ 80 | ≥ 80 | ≥ 80 | ≥ 80 |
|  | CCS(=O)(=O)c1cc(C(=O)N=S(C)(C)=O)ccc1-c1cn2cnc(C(F)(F)F)cc2n1 [Compound P7, N-[dimethyl(oxo)-λ^6-sulfanylidene]-3-ethylsulfonyl-4-[7-(trifluoromethyl)imidazo[1,2-c]pyrimidin-2-yl]benzamide] |  | ≥ 80 | ≥ 80 | ≥ 80 |  |  | ≥ 80 | ≥ 80 |
|  | CCS(=O)(=O)c1cc(C(=O)N=S(C)(=O)CC)cnc1-c1nc2cc(C(F)(F)F)ncc2n1C (centres unmarked) [Compound P8, N-(ethyl-methyl-oxo-λ^6-sulfanylidene)-5-ethylsulfonyl-6-[3-methyl-6-(trifluoromethyl)imidazo[4,5-c]pyridin-2-yl]pyridine-3-carboxamide] | ≥ 80 | ≥ 80 | ≥ 80 | ≥ 80 | ≥ 80 | ≥ 80 | ≥ 80 | ≥ 80 |
|  | CCS(=O)(=O)c1cc(C(=O)N=S(C)(=O)CC)cnc1-c1nc2cc(C(F)(F)F)nnc2n1C (centres unmarked) [Compound P9, N-(ethyl-methyl-oxo-λ^6-sulfanylidene)-5-ethylsulfonyl-6-[7-methyl-3-(trifluoromethyl)imidazo[4,5-c]pyridazin-6-yl]pyridine-3-carboxamide] |  | ≥ 80 | ≥ 80 | ≥ 80 | ≥ 80 | ≥ 80 | ≥ 80 | ≥ 80 |
|  | CCS(CC)=NC(=O)c1cnc(-c2nc3cc(C(F)(F)F)ncc3n2C)c(S(=O)(=O)CC)c1 [Compound P10, N-(diethyl-λ^4-sulfanylidene)-5-ethylsulfonyl-6-[3-methyl-6-(trifluoromethyl)imidazo[4,5-c]pyridin-2-yl]pyridine-3-carboxamide] |  | ≥ 80 |  | ≥ 80 | ≥ 80 | ≥ 80 | ≥ 80 | ≥ 80 |
|  | CCS(=O)(=O)c1cc(C(=O)N=S2(=O)CCC2)cnc1-c1cn2cnc(C(F)(F)F)cc2n1 [Compound P13, 5-ethylsulfonyl-N-(1-oxothietan-1-ylidene)-6-[7-(trifluoromethyl)imidazo[1,2-c]pyrimidin-2-yl]pyridine-3-carboxamide] | ≥ 80 | ≥ 80 | ≥ 80 |  | ≥ 80 |  | ≥ 80 | ≥ 80 |
|  | CCS(=O)(=O)c1cc(C(=O)N=S(C)(C)=O)cnc1-c1nc2cc(C(F)(F)F)cnc2n1C [Compound P14, N-[dimethyl(oxo)-λ^6-sulfanylidene]-5-ethylsulfonyl-6-[3-methyl-6-(trifluoromethyl)imidazo[4,5-b]pyridin-2-yl]pyridine-3-carboxamide] | ≥ 80 | ≥ 80 | ≥ 80 | ≥ 80 | ≥ 80 | ≥ 80 | ≥ 80 | ≥ 80 |
|  | CCS(=O)(=O)c1cc(C(=O)N=S(C)(=O)CC)cnc1-c1nc2cc(C(F)(F)F)cnc2n1C (centres unmarked) [Compound P15, N-(ethyl-methyl-oxo-λ^6-sulfanylidene)-5-ethylsulfonyl-6-[3-methyl-6-(trifluoromethyl)imidazo[4,5-b]pyridin-2-yl]pyridine-3-carboxamide] | ≥ 80 | ≥ 80 | ≥ 80 | ≥ 80 | ≥ 80 | ≥ 80 | ≥ 80 | ≥ 80 |
|  | CCS(=O)(=O)c1cc(C(=O)N=S2(=O)CCC2)cnc1-c1nc2cc(C(F)(F)F)cnc2n1C [Compound P16, 5-ethylsulfonyl-6-[3-methyl-6-(trifluoromethyl)imidazo[4,5-b]pyridin-2-yl]-N-(1-oxothietan-1-ylidene)pyridine-3-carboxamide] | ≥ 80 | ≥ 80 | ≥ 80 |  | ≥ 80 | ≥ 80 | ≥ 80 | ≥ 80 |
|  | CCS(=O)(=O)c1cc(C(=O)N=S(=O)(CC)CC)cnc1-c1nc2cc(C(F)(F)F)cnc2n1C [Compound P19, N-[diethyl(oxo)-λ^6-sulfanylidene]-5-ethylsulfonyl-6-[3-methyl-6-(trifluoromethyl)imidazo[4,5-b]pyridin-2-yl]pyridine-3-carboxamide] |  | ≥ 80 |  | ≥ 80 | ≥ 80 | ≥ 80 | ≥ 80 | ≥ 80 |
|  | CCS(=O)(=O)c1cc(C(=O)N=S(=O)(CC)CC)cnc1-c1cn2cnc(C(F)(F)F)cc2n1 [Compound P21, N-[diethyl(oxo)-λ^6-sulfanylidene]-5-ethylsulfonyl-6-[7-(trifluoromethyl)imidazo[1,2-c]pyrimidin-2-yl]pyridine-3-carboxamide] | ≥ 80 | ≥ 80 |  |  | ≥ 80 |  |  |  |
|  | CCS(=O)(=O)c1cc(C(=O)N=S(C)(C)=O)ccc1-c1nc2cc(C(F)(F)F)cnc2n1C [Compound P22, N-[dimethyl(oxo)-λ^6-sulfanylidene]-3-ethylsulfonyl-4-[3-methyl-6-(trifluoromethyl)imidazo[4,5-b]pyridin-2-yl]benzamide] |  | ≥ 80 | ≥ 80 | ≥ 80 | ≥ 80 | ≥ 80 | ≥ 80 | ≥ 80 |
|  | CCS(=O)(=O)c1cc(C(=O)N=S(C)(C)=O)cnc1-n1cc2cnc(C(F)(F)F)cc2n1 [Compound P24, N-[dimethyl(oxo)-λ^6-sulfanylidene]-5-ethylsulfonyl-6-[6-(trifluoromethyl)pyrazolo[4,3-c]pyridin-2-yl]pyridine-3-carboxamide] | ≥ 80 | ≥ 80 | ≥ 80 |  |  |  |  |  |
| 216 to 219 | CCS(=O)(=O)c1cc(C(=O)N=S(C)(=O)CC)cnc1-n1cc2cnc(C(F)(F)F)cc2n1 (centres unmarked) [Compound P25, N-(ethyl-methyl-oxo-λ^6-sulfanylidene)-5-ethylsulfonyl-6-[6-(trifluoromethyl)pyrazolo[4,3-c]pyridin-2-yl]pyridine-3-carboxamide] |  |  |  |  |  |  |  |  |
